# Assays:
# pSTAT3 (Tyr705) = experiment: Immunoblot of STAT3 phosphorylation in MM cells; assay type: cell-based, human; settings: RPMI8226 infected with shRNAs, bortezomib 5 nM, 6 hours (FIG. 7C)
# Procedure: MM cells were harvested and lysed using sodium dodecyl sulfate-polyacrylamide gel electrophoresis (SDS-PAGE) sample buffer containing 60 mM Tris-HCl, pH 6.8, 2% SDS, 10% glycerol, 0.005% bromophenol blue, 5 mM ethylenediaminetetraacetic acid, 5 mM NaF, 2 mM […], 1 mM phenylmethylsulfonyl fluoride (PMSF), 5 μg/mL leupeptin, and 5 μg/mL aprotinin; and then heated at 100° C. for 5 min. After the determination of protein concentration using DC protein assay (Bio-Rad, Hercules, Calif.), β-mercaptoethanol (β-ME) was added to the whole-cell lysates to a 2% final β-ME concentration. The whole-cell lysates were subjected to SDS-PAGE, transferred to nitrocellulose membranes (Bio-Rad, Hercules, Calif.) or polyvinylidene fluoride membranes (Millipore, Billerica, Mass.), and immunoblotted with anti-histone H3, -HDAC1, -HDAC2, -HDAC3, -Acetyl-histone H2A (Lysine 5) (Ac-H2AK5), -Acetyl-histone H2B (lysine 5) (Ac-H2 BK5), -Acetyl-histone H3 (lysine 9) (Ac-H3K9), -Acetyl-histone H4 (lysine 8) (Ac-H4K8), -glyceraldehyde-3-phosphate dehydrogenase (GAPDH), -poly (ADP-ribose) polymerase (PARP), -caspase-3, -caspase-8, -caspase-9, -Signal transducers and activators of transcription 3 (STAT3), -phospho-STAT3 (pSTAT3) (tyrosine 705), -pSTAT3 (serine 727), -p21, -Janus kinase 2 (JAK2), -acetylated-Lysine (Ac-K), and anti-phosphorylated-tyrosine antibodies (Abs; Cell Signaling Technology, Beverly, Mass.).
# MM.1S, U266, and INA6 cells were cultured with DMSO control or LBH589 (50 and 100 nM) for 8 h.
# MM.1S cells pretreated with or without 50 nM LBH589 for 8 hours were then treated with IL-6 (10 ng/mL) or BMSC culture supernatants (#1 and #2) for 15 minutes. Whole cell lysates were subjected to immunoblotting with anti-pSTAT3 (Tyr705) and STAT3 Abs.
# In addition, INA-6 cells were cultured with DMSO control, LBH589 (50 nM), TSA (1 μM) or SAHA (2 μM) for 8 hours. Whole cell lysates were subjected to immunoblotting with anti-pSTAT3 (Tyr705), STAT3, and GAPDH Abs.
# Whole cell lysates were subjected to immunoblotting with anti-pSTAT3 (Tyr705), -STAT3, -pERK1/2 (Thr202/204), and -ERK1/2 Abs (FIG. 6G).
# See, e.g., Hideshima et al. Blood. 2006, 107:4053-4062. Since bortezomib upregulates activated STAT3 in head and neck squamous cell carcinoma (see, e.g., Li et al. Mol Cancer Ther 2009. 8:2211-2220), experiments were conducted to test whether bortezomib enhances p-STAT3 in MM cells. RPMI8226 cells were infected with Luc, HDAC1 (sh1), HDAC2 (sh1) or HDAC3 (sh1) shRNAs and then treated with or without bortezomib (5 nM) for 6 hours. Whole cell lysates were subjected to immunoblotting with anti-STAT3, -pSTAT3 (Tyr705), -pERK1/2 (Thr202/204) and -ERK1/2 Abs.
# HDAC3 knockdown cells = experiment: MTT cell growth in HDAC3 knockdown cells; assay type: cell-based, human
# Procedure: HDAC1, HDAC2 and HDAC3 pLKO.1 shRNA vectors were obtained from the RNA Interference Screening Facility at the Dana-Farber Cancer institute. Recombinant lentivirus was produced and infection of MM cells was performed using standard methods in the art.
# In addition, the effect of bortezomib on HDAC3 knockdown cells was examined. RPMI8226 (FIG. 7B, left panel) and MM.1S (FIG. 7B, right panel) cells were infected with Luc or HDAC3 (#1 and #2) shRNAs. Cells were then cultured with or without bortezomib (3 nM) for 48 hours and cell growth was assessed by MTT assay. Data represent mean±SD from triplicate cultures.
# Also, experiments were conducted to determine whether dual inhibition of both HDAC3 and HDAC6 was more cytotoxic than either HDAC3 or HDAC6 when combined with bortezomib. Cell growth was assayed by MTT assay in the presence of Luc (control), sh1 or sh2 shRNAs against HDAC3 alone, or in combination with a selective HDAC6 inhibitor—tubastatin-A, or in combination with both tubastatin-A and bortezomib.
# [1] = test system: JMJ family demethylases, including several variants of JMJD2 and JMJD1; settings: Kruidenier et al. 2012; cited from earlier work
# JMJD2A in HeLa cells = settings: read-out: IC50 H3K9me3 demethylation by JMJD2A, King et al. 2010; cited from earlier work
# PHF8 = PHF8 (Homo sapiens, UniProt Q9UPP1); settings: King et al. 2010; cited from earlier work
# Chain of PHF8 (Q9UPP1 whole entry, species assumed): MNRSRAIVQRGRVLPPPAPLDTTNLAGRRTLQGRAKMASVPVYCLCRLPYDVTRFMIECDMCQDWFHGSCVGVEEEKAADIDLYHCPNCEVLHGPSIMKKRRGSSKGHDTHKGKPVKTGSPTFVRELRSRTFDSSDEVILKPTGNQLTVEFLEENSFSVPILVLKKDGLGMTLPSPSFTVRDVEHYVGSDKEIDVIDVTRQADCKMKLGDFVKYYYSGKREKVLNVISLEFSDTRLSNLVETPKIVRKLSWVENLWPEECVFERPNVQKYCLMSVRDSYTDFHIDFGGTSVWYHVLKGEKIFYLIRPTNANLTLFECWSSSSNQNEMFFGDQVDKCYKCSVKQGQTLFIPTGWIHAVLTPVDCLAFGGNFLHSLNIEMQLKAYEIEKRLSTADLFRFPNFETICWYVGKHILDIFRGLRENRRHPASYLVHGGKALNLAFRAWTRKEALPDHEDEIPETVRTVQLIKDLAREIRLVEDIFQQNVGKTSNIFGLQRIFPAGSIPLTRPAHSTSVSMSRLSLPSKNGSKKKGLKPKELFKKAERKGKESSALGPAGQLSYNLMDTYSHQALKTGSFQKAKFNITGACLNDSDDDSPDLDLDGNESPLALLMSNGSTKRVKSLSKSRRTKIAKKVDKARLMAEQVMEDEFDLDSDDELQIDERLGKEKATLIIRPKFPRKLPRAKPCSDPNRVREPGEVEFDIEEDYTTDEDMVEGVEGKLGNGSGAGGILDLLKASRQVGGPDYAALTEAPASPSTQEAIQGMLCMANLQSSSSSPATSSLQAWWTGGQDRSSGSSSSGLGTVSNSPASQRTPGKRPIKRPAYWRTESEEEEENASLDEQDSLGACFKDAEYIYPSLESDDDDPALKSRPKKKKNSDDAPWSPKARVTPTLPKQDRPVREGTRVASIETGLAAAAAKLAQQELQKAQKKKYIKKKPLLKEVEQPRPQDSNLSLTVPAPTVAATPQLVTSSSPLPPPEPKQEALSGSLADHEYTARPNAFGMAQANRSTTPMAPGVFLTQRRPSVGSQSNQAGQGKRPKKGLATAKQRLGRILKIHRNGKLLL
# RPMI8226 cells [2] = experiment: Immunoblot of histone acetylation in RPMI8226 cells; assay type: cell-based, human; settings: RPMI8226, 12 h, compared with Merck60 (FIG. 1C)
# MM cell lines = experiment: Cell growth inhibition assay (MTT) in MM cell lines; assay type: cell-based, human; settings: MM cell lines, 48 hours, MTT (FIG. 1A)
# Procedure: To measure proliferation of MM cells, the rate of DNA synthesis was measured by ^3[H]-thymidine (Perkin-Elmer) uptake.
# The growth inhibitory effect of Merck60 (HDACL, 2 inhibitor previously reported as compound #60 by Method et al. Bioorg. Med. Chem. Lett. 2008. 18(3):973-8) versus MS275 (HDAC1, 2, 3 inhibitor) was examined in MM cell lines using MTT assay. MM cells were cultured with Merck60 (left panel) or MS275 (right panel) for 48 hours. Cell growth was assessed by MTT assay. All experiments were performed 3 times in quadruplicate. Data represent mean±SD.
# Cell growth was assessed by MTT assay. All experiments were performed 3 times in quadruplicate. Data represent mean±SD.
# RPMI8226 cells [3] = experiment: Combination with bortezomib, MTT cytotoxicity, combination index; assay type: cell-based, human; settings: for CI (combination index): RPMI8226, MTT, 24 h
# Procedure: The combined effect of drugs was analyzed by isobologram analysis using the Compusyn software program (ComboSyn, Inc.); a combination index (CI)<1 is indicative of a synergistic effect.
# All experiments were performed 3 times in quadruplicate. Data represent mean±SD (FIG. 7D).
smiles,measurement,setting,value
"CC(C)CC(NC(=O)[C@H](Cc1ccccc1)NC(=O)c1cnccn1)B(O)O (stereo in doubt) [bortezomib, [(1R)-3-methyl-1-[[(2S)-1-oxo-3-phenyl-2-[(pyrazinylcarbonyl)amino]propyl]amino]butyl]boronic acid]",p-STAT3,pSTAT3 (Tyr705),upregulated p-STAT3
same,cytotoxicity in HDAC3 knockdown cells,"HDAC3 knockdown cells; RPMI8226 and MM.1S with HDAC3 shRNAs, bortezomib 3 nM, 48 hours, MTT (FIG. 7B)",significantly enhances cytotoxicity
"O=C([O-])CCNc1cc(N2CCc3ccccc3CC2)nc(-c2ccccn2)n1.[Na+] [GSK J1, 3-((6-(4,5-dihydro-1H-benzo[d]azepin-3(2H)-yl)-2-(pyridin-2-yl)pyrimidin-4-yl)amino)propanoate, monosodium salt]",activity against a panel of additional JMJ family demethylases,[1],inactive
"O=C(O)c1ccc(O)c2ncccc12 [IOX1, 8-hydroxy-5-quinolinecarboxylic acid]",IC50,JMJD2A in HeLa cells,87 µM
same,IC50,PHF8,13.3 µM
Nc1ccccc1NC(=O)c1ccc(CNC(=O)OCc2cccnc2)cc1 [MS275],"acetylation of histones (H2A, H2B, H3 and H4)",RPMI8226 cells [2],more potently induced acetylation of histones
same,MM cell growth inhibition,MM cell lines,significant MM cell growth inhibition
same,CI (combination index),RPMI8226 cells [3]; HDAC inhibitor 1 μM + bortezomib 4 nM,0.81
same,CI (combination index),RPMI8226 cells [3]; HDAC inhibitor 2 μM + bortezomib 2 nM,0.56
same,CI (combination index),RPMI8226 cells [3]; HDAC inhibitor 2 μM + bortezomib 3 nM,0.63
same,CI (combination index),RPMI8226 cells [3]; HDAC inhibitor 2 μM + bortezomib 4 nM,0.76
same,CI (combination index),RPMI8226 cells [3]; HDAC inhibitor 3 μM + bortezomib 2 nM,0.53
same,CI (combination index),RPMI8226 cells [3]; HDAC inhibitor 3 μM + bortezomib 3 nM,0.62
same,CI (combination index),RPMI8226 cells [3]; HDAC inhibitor 3 μM + bortezomib 4 nM,0.77
same,cytotoxicity in combination with bortezomib,"RPMI8226 cells [3]; RPMI8226, bortezomib 0-4 nM + 1-3 μM, 24 hours (FIG. 7A)",synergistic cytotoxicity
CN1CCc2c(c3ccccc3n2Cc2ccc(C(=O)NO)cc2)C1 [tubastatin-A],cytotoxicity of combined HDAC3 knockdown with bortezomib,"HDAC3 knockdown cells; MTT, tubastatin-A added (FIG. 8B)",further enhanced cytotoxicity
